Experimental data reported in ChEMBL document CHEMBL3875174, “Further investigation of Paprotrain: Towards the conception of selective and multi-targeted CNS kinase inhibitors” (Eur J Med Chem, 2016).

What was measured:
[1] = target: Dual specificity tyrosine-phosphorylation-regulated kinase 1A (Homo sapiens, UniProt Q13627); test: Inhibition of GST-tagged human recombinant DYRK1A expressed in Escherichia coli using RS peptide as substrate incubated for 30 mins in presence of [gamma-33 P] ATP by liquid scintillation counting analysis
[2] = target: Dual specificity protein kinase CLK1 (Homo sapiens, UniProt P49759); test: Inhibition of GST-tagged human recombinant CLK1 expressed in Escherichia coli using RS peptide as substrate incubated for 30 mins in presence of [gamma-33 P] ATP by liquid scintillation counting analysis
Chain of Dual specificity protein kinase CLK1 (P49759 whole entry): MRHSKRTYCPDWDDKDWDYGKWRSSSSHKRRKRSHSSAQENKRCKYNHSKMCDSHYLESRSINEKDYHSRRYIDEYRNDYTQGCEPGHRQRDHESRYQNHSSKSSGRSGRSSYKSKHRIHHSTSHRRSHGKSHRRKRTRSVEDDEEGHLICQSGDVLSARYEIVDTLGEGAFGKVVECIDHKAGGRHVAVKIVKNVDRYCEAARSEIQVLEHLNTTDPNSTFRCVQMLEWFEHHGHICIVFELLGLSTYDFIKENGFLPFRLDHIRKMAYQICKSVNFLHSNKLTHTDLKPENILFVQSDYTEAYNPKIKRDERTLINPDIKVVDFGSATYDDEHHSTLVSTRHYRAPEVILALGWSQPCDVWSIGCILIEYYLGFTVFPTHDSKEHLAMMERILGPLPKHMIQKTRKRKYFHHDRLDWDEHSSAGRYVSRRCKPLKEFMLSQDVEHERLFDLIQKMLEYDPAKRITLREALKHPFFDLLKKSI

[3] = target: Glycogen synthase kinase-3 (Sus scrofa, UniProt B2LUN4+I6LNT8); test: Inhibition of porcine brain GSK3alpha/beta using GS-1 as substrate incubated for 30 mins in presence of [gamma-33 P] ATP by liquid scintillation counting analysis
[4] = target: Cyclin-dependent kinase 5/CDK5 activator 1 (Homo sapiens, UniProt Q00535); assay type: protein-complex assay
Chain of Cyclin-dependent kinase 5/CDK5 activator 1 (Q00535 whole entry): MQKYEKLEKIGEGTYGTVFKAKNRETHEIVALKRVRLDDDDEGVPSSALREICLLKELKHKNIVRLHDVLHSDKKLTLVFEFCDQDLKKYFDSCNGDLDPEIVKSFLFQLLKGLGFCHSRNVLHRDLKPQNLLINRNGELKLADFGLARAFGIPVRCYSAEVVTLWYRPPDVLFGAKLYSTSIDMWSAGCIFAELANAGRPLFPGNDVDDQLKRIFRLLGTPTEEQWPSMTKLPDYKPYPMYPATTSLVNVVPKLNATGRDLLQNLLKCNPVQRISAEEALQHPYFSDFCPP
Chain of Cyclin-dependent kinase 5/CDK5 activator 1 (Q15078 whole entry, further chain): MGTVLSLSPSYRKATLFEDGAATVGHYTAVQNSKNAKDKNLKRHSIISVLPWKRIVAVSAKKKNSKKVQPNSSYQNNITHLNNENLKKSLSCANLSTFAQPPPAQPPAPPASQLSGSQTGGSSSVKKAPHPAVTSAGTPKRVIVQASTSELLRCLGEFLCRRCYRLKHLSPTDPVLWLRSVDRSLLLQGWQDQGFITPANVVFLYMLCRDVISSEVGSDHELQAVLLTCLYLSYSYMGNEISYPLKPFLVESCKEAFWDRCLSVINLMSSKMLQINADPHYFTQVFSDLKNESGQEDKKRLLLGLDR

[5] = Inhibition of porcine brain CK1 delta/epsilon using RRKHAAIGpSAYSITA as substrate incubated for 30 mins in presence of [gamma-33 P] ATP by liquid scintillation counting analysis; parameters: species or system Sus scrofa
[6] = target: Dual specificity tyrosine-phosphorylation-regulated kinase 1B (Homo sapiens, UniProt Q9Y463); test: Inhibition of GST-tagged human recombinant DYRK1B expressed in Escherichia coli using RS peptide as substrate incubated for 30 mins in presence of [gamma-33 P] ATP by liquid scintillation counting analysis
Chain of Dual specificity tyrosine-phosphorylation-regulated kinase 1B (Q9Y463 whole entry): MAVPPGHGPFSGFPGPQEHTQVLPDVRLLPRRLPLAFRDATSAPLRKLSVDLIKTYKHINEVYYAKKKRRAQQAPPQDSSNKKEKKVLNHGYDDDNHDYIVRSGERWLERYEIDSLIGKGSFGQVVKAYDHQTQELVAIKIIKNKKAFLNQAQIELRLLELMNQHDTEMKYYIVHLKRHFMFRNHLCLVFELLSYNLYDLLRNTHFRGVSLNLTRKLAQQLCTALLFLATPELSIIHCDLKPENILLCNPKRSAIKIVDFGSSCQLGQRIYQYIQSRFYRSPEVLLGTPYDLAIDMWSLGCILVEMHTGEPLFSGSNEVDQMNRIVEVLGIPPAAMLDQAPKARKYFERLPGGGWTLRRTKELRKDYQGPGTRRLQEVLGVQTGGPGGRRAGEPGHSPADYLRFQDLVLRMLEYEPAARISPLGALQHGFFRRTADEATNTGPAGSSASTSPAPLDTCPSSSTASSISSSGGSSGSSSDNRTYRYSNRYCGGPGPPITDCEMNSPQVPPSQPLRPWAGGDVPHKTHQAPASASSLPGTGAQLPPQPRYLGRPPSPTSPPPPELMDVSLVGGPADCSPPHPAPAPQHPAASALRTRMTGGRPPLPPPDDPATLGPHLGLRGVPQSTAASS

[7] = target: Dual specificity protein kinase CLK4 (Homo sapiens, UniProt Q9HAZ1); test: Inhibition of GST-tagged human recombinant CLK4 expressed in Escherichia coli using RS peptide as substrate incubated for 30 mins in presence of [gamma-33 P] ATP by liquid scintillation counting analysis
Chain of Dual specificity protein kinase CLK4 (Q9HAZ1 whole entry): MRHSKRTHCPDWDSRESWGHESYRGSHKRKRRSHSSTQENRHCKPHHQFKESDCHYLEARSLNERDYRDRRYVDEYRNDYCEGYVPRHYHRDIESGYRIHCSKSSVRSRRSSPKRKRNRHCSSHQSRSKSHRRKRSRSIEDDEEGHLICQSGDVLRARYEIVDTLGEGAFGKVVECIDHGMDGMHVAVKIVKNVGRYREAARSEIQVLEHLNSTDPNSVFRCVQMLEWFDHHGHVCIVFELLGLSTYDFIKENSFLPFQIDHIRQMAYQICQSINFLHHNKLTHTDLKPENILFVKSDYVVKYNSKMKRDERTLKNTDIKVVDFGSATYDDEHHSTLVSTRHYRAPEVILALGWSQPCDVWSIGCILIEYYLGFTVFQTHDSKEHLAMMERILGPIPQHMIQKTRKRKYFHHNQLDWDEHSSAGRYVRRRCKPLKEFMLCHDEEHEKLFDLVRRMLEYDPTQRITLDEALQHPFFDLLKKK

[8] = Cytotoxicity against human KB cells assessed as growth inhibition at 1 uM after 72 hrs by MTS assay; assay type: toxicity, cell-based; details: for growth inhibition (GI): kb, 72 h, 1 µM; for inhibition at 72 h, 1 µM: KB cells, read-out: GI
[9] = target: Dual specificity protein kinase CLK2 (Homo sapiens, UniProt P49760); test: Inhibition of GST-tagged human recombinant CLK2 expressed in Escherichia coli using RS peptide as substrate incubated for 30 mins in presence of [gamma-33 P] ATP by liquid scintillation counting analysis
Chain of Dual specificity protein kinase CLK2 (P49760 whole entry): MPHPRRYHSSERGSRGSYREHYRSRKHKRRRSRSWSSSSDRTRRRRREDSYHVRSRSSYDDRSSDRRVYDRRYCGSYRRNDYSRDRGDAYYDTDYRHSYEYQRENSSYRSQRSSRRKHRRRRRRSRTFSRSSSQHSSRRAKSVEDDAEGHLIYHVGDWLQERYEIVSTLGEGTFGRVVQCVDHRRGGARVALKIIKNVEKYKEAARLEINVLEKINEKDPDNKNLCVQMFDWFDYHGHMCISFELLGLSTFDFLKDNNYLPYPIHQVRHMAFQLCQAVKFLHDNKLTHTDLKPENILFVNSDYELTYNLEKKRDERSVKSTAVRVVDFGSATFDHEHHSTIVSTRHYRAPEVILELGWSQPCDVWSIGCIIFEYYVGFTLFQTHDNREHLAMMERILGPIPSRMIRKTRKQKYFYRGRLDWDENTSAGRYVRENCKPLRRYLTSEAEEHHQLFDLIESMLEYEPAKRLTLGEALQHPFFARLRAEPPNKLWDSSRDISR

[10] = target: Dual specificity protein kinase CLK3 (Homo sapiens, UniProt P49761); test: Inhibition of GST-tagged human recombinant CLK3 expressed in Escherichia coli using RS peptide as substrate incubated for 30 mins in presence of [gamma-33 P] ATP by liquid scintillation counting analysis
Chain of Dual specificity protein kinase CLK3 (P49761 whole entry): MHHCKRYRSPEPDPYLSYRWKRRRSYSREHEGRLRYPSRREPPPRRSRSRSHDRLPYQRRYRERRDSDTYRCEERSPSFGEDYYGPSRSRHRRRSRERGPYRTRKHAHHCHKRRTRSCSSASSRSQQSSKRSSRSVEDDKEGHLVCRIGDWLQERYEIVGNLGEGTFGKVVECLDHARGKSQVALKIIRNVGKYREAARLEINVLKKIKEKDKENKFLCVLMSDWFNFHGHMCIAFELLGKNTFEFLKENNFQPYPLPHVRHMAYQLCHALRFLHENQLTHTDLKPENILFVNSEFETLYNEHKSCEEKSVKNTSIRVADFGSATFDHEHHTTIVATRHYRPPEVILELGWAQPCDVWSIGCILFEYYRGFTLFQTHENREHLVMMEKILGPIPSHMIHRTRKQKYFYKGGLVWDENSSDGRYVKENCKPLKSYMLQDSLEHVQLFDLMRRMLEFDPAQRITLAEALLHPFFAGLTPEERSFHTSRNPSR

| SMILES | IC50 [1] [µM] | IC50 [2] [µM] | IC50 [3] [µM] | IC50 [4] [µM] | IC50 [5] [µM] | IC50 [6] [µM] | IC50 [7] [µM] | growth inhibition (GI) [8] | IC50 [9] [µM] | IC50 [10] [µM] | inhibition at 72 h, 1 µM [8] [%] |
| --- | --- | --- | --- | --- | --- | --- | --- | --- | --- | --- | --- |
| COc1cccc2c(/C(C#N)=C/c3cccnc3)c[nH]c12 | 1.2 | 1.5 | > 10 | > 10 | > 10 |  |  |  |  |  |  |
| COc1cccc2[nH]cc(/C(C#N)=C/c3cccnc3)c12 | 6 | 3 | > 10 | > 10 | > 10 |  |  |  |  |  |  |
| N#C/C(=C\c1cccnc1)c1c[nH]c2ccccc12 | 5.5 |  | > 10 | > 10 |  |  |  |  |  |  |  |
| COc1ccc2c(/C(C#N)=C/c3cccnc3)c[nH]c2c1 | 1.6 | 1.3 | > 10 | > 10 | > 10 |  |  |  |  |  |  |
| COc1ccc2[nH]cc(/C(C#N)=C/c3cccnc3)c2c1 | 6.3 |  | > 10 | > 10 |  |  |  |  |  |  |  |
| N#C/C(=C/c1cccnc1)c1c[nH]c2ccccc12 | > 10 | > 10 | > 10 | > 10 |  |  |  |  |  |  |  |
| N#Cc1cc2cnccc2c2[nH]c3ccc(F)cc3c12 | 0.31 | 0.23 | > 10 | > 10 | > 10 | 0.3 | 0.2 | Non-Toxic | 0.61 | > 10 |  |
| N#Cc1cc2cnccc2c2[nH]c3ccc(Cl)cc3c12 | 4 | > 10 | > 10 | > 10 | > 10 |  |  |  |  |  |  |
| N#Cc1cc2ccccc2c2[nH]c3ccccc3c12 | 2.3 | 1.4 | > 10 | > 10 | > 10 |  |  |  |  |  |  |
| N#Cc1cc2ncccc2c2[nH]c3ccccc3c12 | 10 | > 10 | > 10 | > 10 | > 10 |  |  |  |  |  |  |
| COc1ccc2[nH]c3c4ccncc4cc(C#N)c3c2c1 | 0.37 | 0.051 | 1.7 | 0.8 | > 10 | 0.22 | 0.057 | Non-Toxic | 0.11 | 0.71 |  |
| COc1ccc2c(c1)[nH]c1c3ccncc3cc(C#N)c21 | 0.025 | 0.023 | 0.68 | 0.44 | > 10 | 0.034 | 0.033 |  | 0.08 | 0.19 | 64 |
| N#Cc1cc2cnccc2c2[nH]c3ccccc3c12 | 0.05 |  | 1 | 0.8 |  |  |  |  |  |  |  |
| COc1ccc2cc(-c3ccncc3)[nH]c2n1 | > 10 | 2.9 | > 10 | > 10 | > 10 |  |  |  |  |  |  |
| COc1cncc(/C=C(\C#N)c2c[nH]c3ccc(OC)cc23)c1 | > 10 | 2.3 | > 10 | > 10 | > 10 |  |  |  |  |  |  |
| N#Cc1cc2cnccc2c2[nH]c3ncccc3c12 | 0.44 | 0.16 | 1.8 | 0.78 | > 10 | 0.16 | 0.13 | Non-Toxic | 0.4 | 6.8 |  |
| N#C/C(=C\c1ccccc1)c1c[nH]c2ccccc12 | > 10 |  | > 10 | > 10 |  |  |  |  |  |  |  |
| COc1ccc2c(CC#N)c(-c3ccncc3)[nH]c2n1 | 7.3 | 1.1 | > 10 | > 10 | > 10 |  |  |  |  |  |  |
| N#C/C(=C\c1cccnc1)c1c[nH]c2ccc(F)cc12 | 1.8 | 1.7 | > 10 | > 10 | > 10 |  |  |  |  |  |  |
| Nc1nc2ccccc2c2cc3cnccc3cc12 | > 10 | 2.1 | > 10 | > 10 | > 10 |  |  |  |  |  |  |
| N#C/C(=C\c1ccccn1)c1c[nH]c2ccccc12 | > 10 |  | > 10 | > 10 |  |  |  |  |  |  |  |

| SMILES | IC50 [1] [µM] | IC50 [2] [µM] | IC50 [3] [µM] | IC50 [4] [µM] | IC50 [5] [µM] | IC50 [6] [µM] | IC50 [7] [µM] | growth inhibition (GI) [8] | IC50 [9] [µM] | IC50 [10] [µM] | inhibition at 72 h, 1 µM [8] [%] |
| --- | --- | --- | --- | --- | --- | --- | --- | --- | --- | --- | --- |
| COc1ccc2c(c1)[nH]c1c3c(OC)cncc3cc(C(N)=O)c21 | 3.3 | 1.6 | > 10 | 1.6 | > 10 |  |  |  |  |  |  |
| COc1cccc2c1[nH]c1c3ccncc3cc(C(N)=O)c21 | 0.6 | 0.57 | 8.8 | 9 | > 10 | 0.46 | 0.11 | Non-Toxic | 3.5 | 6.1 |  |
| COc1ccc2[nH]cc(/C(C#N)=C(\N)c3cccnc3)c2c1 | > 10 | > 10 | > 10 | > 10 | > 10 |  |  |  |  |  |  |
| COc1ccc2c(c1)[nH]c1c3c(OC)cncc3cc(C#N)c21 | 0.018 | 0.023 | 0.14 | 6.4 | > 10 | 0.042 | 0.03 |  | 0.15 | 0.32 | 38 |
| COc1ccc2c(c1)[nH]c1c3ccncc3cc(CN(C)C)c21 | 0.67 | 1.4 | > 10 | 5.4 | > 10 |  |  |  |  |  | 37 |
| COc1ccc2c(c1)[nH]c1c3ccncc3cc(C(N)=O)c21 | 2 | 1.6 | 9 | 4.5 | > 10 |  |  |  |  |  |  |
| COc1ccc2[nH]c3c4c(OC)cncc4cc(C#N)c3c2c1 | 0.6 | 0.056 | 4 | 0.93 | > 10 |  |  | Non-Toxic |  |  |  |
| COc1ccc2[nH]cc3c2c1C(C)NC(c1cccnc1)=C3C#N (centres undefined) | 5 | > 10 | > 10 | 6.4 | > 10 |  |  |  |  |  |  |
| COc1ccc2[nH]c3c(=O)[nH]c(-c4cccnc4)c(C#N)c3c2c1 | 4.3 | 0.047 | > 10 | > 10 | > 10 | 1.1 | 0.021 | Non-Toxic | 0.61 | > 10 |  |
| N#C/C(=C\c1cccnc1)c1c[nH]c2ccc(Cl)cc12 | 3.3 | 2 | > 10 | > 10 | > 10 |  |  |  |  |  |  |
| N#C/C(=C\c1ccncc1)c1c[nH]c2ccccc12 | > 10 |  | > 10 | > 10 |  |  |  |  |  |  |  |
| N#Cc1cc2cccnc2c2[nH]c3ccccc3c12 | > 10 |  | > 10 | > 10 |  |  |  |  |  |  |  |
| COc1ccc2c(n1)[nH]c1c3ccncc3cc(C#N)c21 | 0.2 | 0.086 | > 10 | > 10 | > 10 | 0.093 | 0.047 | Non-Toxic | 4.6 | > 10 |  |
| COc1ccc2c(c1)[nH]c1c3ccncc3cc(CN)c21 | 0.87 | 0.83 | > 10 | 5.6 | > 10 | 0.91 | 0.27 |  | 1.6 | 7 | 85 |
| COc1ccc2[nH]cc(/C(C#N)=C/c3cnccc3C)c2c1 | 5.5 | 4 | > 10 | > 10 | > 10 |  |  |  |  |  |  |
| COc1ccc2[nH]cc(-c3cc4cnccc4cc3NC(C)=O)c2c1 | 0.85 | 0.034 | > 10 | 8 | > 10 | 0.59 | 0.022 | Non-Toxic | 1.1 | 7 |  |
| COc1ccc2c(c1)[nH]c1c3ccncc3cc(CNC(C)=O)c21 | 0.97 | 2.4 | > 10 | 6 | > 10 | 0.9 | 0.69 |  | 2.8 | 8 | 16 |
| COc1cccc2c1[nH]c1c3ccncc3cc(C#N)c21 | 0.027 | 0.041 | 2 | 0.46 | > 10 | 0.028 | 0.04 |  | 0.044 | 0.18 | 9 |
| N#Cc1cc2ccccn2c2nc3ccccc3c1-2 | > 10 | > 10 | > 10 | > 10 | > 10 |  |  |  |  |  |  |
| COc1ccc2c(c1)[nH]c1c(C)nccc12 [HARMINE] |  |  | > 10 |  | 1.5 |  |  |  |  |  |  |
